Data taken from patent publication EP3404113A1, “METHOD FOR DETECTING PROTEIN-DNA INTERACTION” (Universidad del Pais Vasco, priority 2017, dated 2018).
Entries after “also recorded” stand apart in the source; their conditions may differ.

Experiments:
FOXM1-DNA = target: T1, FOXM1-DNA (Homo sapiens, UniProt Q08050); experiment: Multiplexed nanopore single-molecule measurement, FOXM1-DNA pair (Reporter 2); type: binding; settings: increasing amounts of FDI-6
T1 construct: the FoxMIC gene (residues 222-360) was cloned in a pET-28 vector; made in house; host or cells: E. coli BL21 (DE3)
T1 sequence (Q08050 222-360): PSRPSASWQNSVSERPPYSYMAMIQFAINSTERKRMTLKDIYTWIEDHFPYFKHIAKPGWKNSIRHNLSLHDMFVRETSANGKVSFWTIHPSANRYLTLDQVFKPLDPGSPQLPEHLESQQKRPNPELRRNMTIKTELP

FOXM1 = target: T2, FOXM1 (Homo sapiens, UniProt Q08050); experiment: Nanopore single-molecule measurement of the inhibition of FOXM1 binding to its DNA target sequence
T2 construct: the FoxMIC gene (residues 222-360) was cloned in a pET-28 vector; made in house; host or cells: E. coli BL21 (DE3)
T2 sequence (Q08050 222-360): T1 sequence (Q08050 222-360)
Procedure: The cis compartment (connected to the ground electrode and where samples were added) was filled with 5 mM MgCl2, 150 mM KCl, 10 mM HEPES pH 7.2 (to mimic physiological conditions) and the trans compartment with 5 mM MgCl2, 2 M KCl, 10 mM HEPES pH 7.2 (to increase the ionic current signal). 0.5 µL of previously heptamerized α-HL was added to the cis compartment and following the first insertion the chamber was manually perfused to remove excess of α-HL. Ionic currents through the αHL pore were measured using Ag/AgCl electrodes with agar bridges in 3 M KCl, and balanced before measurements. The electrodes were connected to an amplifier (Axopatch 200B, Molecular Devices), the signal was filtered at 5 kHz (lowpass Bessel filter) and acquired at 20 kHz with a digitizer (Digidata 1440A, Molecular Devices). All experiments were repeated in at least 3 different pores. Raw data was first analyzed with pClamp software (Molecular Devices) to obtain the current and dwell time of the ionic current levels, >90% of the signals longer than 10 ms were the characteristic signals described in the main text. The residual current of a level is defined as the ionic current of the level divided by the ionic current of the open pore. Data analysis was carried out with Igor Pro (Wavemetrics) and molecular representations were performed using Chimera (UCSF).^47 The confidence interval of the kinetic rates were estimated using: kupp = k⋅(1+z/√n) [formula] klow = k⋅(1−z/√n) [formula] Transcription factors are frequently considered as ideal targets for cancer therapy, yet finding molecules capable of specifically inhibiting their interactions with DNA is challenging. Motivated by the high sensitivity of our measurements, we aimed to explore the capabilities of the nanopore to detect small molecule activity. We choose the DNA binding domain of Forkhead box protein M1 (FOXM1), which is overexpressed in many cancers and for which a molecule that inhibits binding to its target sequence has been reported, FDI-6^37 (Figure 3). When a DNA hairpin containing the binding sequence^38 and a 5' overhang is subjected to nanopore analysis we observe the characteristic ionic current signal reflecting the threading, unzipping and translocation of the DNA (Figure 3a). […] In agreement with previous reports,^29 we attribute the differences in unzipping kinetics to the differences in the first base pair to be unzipped. The RepE oligonucleotide begins with G-C while that of FOXM1 begins with A-T. Following the addition of FOXM1 protein, events showing an additional step are detected (Figure 3b), which correspond to the threading of protein-bound DNA molecules, detachment of the protein, unzipping and translocation of the DNA through the pore. […]

RepE-DNA = target: T3, RepE-DNA (Escherichia coli, UniProt P03856); experiment: Multiplexed nanopore single-molecule measurement, RepE-DNA pair (Reporter 1); type: binding; settings: 0.87 µM RepE, 0.047 µM DNA, increasing amounts of FDI-6, n = 4
T3 construct: purified from an intein vector pTXB1 containing the ORF fused with intein at the C terminus; made in house; host or cells: E. coli BL21 (DE3)

DNA-hairpin reporter = experiment: Nanopore detection of a non-specific DNA interacting compound; type: binding

Row | SMILES | fraction of events assigned to Reporter 2 with bound protein (FOXM1-DNA) | mechanism of action deduced from kinetics of DNA unzipping and protein detachment (FOXM1) | Kd (FOXM1; affinity of the inhibitor for the protein, model: one site, reversible, binding completely prevents protein-DNA interaction, mean ± SD, n=7) [µM] | koff (FOXM1; protein detachment from DNA in the presence of FDI-6, +90 mV, 95 % CI, n = 3, compound absent 57 [96 - 18], read-out: koff,90mV,FD16) [s⁻¹] | fraction of events with a protein bound to DNA (FOXM1; sequential additions of FDI-6 to FOXM1-DNA solution) | effect on the interaction between RepE and its target sequence (RepE-DNA) | ionic current traces (DNA-hairpin reporter; 2.5 mM doxorubicin added to a solution of RepE and its DNA-hairpin reporter) | ionic current signal (DNA-hairpin reporter; interaction of doxorubicin with the DNA)
1 | Nc1c(C(=O)Nc2ccc(F)cc2)sc2nc(-c3cccs3)cc(C(F)(F)F)c12 [FDI-6] | decreased | binds the protein (not the DNA), and that binding is competitive | 139 ± 73 | 49 | decreases | had no effect; also recorded: in none of our measurements was the RepE-DNA pair affected | – | –
2 | COc1cccc2c1C(=O)c1c(O)c3c(c(O)c1C2=O)C[C@@](O)(C(=O)CO)C[C@@H]3O[C@H]1C[C@H](N)[C@H](O)[C@H](C)O1 [doxorubicin] | – | – | – | – | – | – | no characteristic signal for DNA unzipping and translocation was detected | radically changed the ionic current signal, giving noisy long-lived events
